pIC50: −log10 of the molar value.
Legend:
Format in all cases: cell-based
[1] = target: T1, ERα (Homo sapiens, UniProt P03372); assay: ERα degradation in T-47D cells (immunoblot); set-up: host or cells: T-47D; settings: 10 nM, 4 hours
T1 sequence (P03372 1-595): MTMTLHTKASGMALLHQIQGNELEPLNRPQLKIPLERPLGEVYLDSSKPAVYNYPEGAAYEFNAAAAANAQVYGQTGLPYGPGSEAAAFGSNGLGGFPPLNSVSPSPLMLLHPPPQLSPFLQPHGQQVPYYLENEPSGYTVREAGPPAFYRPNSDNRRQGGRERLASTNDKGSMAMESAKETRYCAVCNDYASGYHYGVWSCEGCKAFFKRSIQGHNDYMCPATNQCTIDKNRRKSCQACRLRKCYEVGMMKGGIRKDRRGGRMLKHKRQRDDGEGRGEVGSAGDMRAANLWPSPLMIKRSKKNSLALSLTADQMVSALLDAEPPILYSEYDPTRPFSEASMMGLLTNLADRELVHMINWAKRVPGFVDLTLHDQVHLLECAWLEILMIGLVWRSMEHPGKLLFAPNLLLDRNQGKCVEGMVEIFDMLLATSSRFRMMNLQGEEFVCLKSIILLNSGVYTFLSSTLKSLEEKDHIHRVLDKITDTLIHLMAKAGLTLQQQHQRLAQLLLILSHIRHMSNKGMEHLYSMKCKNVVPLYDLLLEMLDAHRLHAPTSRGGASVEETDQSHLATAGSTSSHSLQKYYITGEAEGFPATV
Experimental: T-47D (ATCC) cells were cultured in PRMI-1640 medium (30-2001, ATCC) containing 10% FBS (10099141C, Gibco) at 37°C and 5% CO2 until they entered the logarithmic growth phase. T-47D cells were seeded onto 6-well plates at a density of 3×10^5 cells per well, and incubated at 37°C with 5% CO2 for 24 hours. After cell attachment, 1 µL of compound in dimethyl sulfoxide solution (final concentration 0.15-1000 nM) was added and the cells were incubated for another 4 hours at 37°C, 5% CO2. After 4 hours, the culture medium was discarded, and each well was washed once with 1 mL of pre-chilled 1× DPBS. The cells were then lysed with 50 µL of RIPA lysis buffer (P0013B, Beyotime) and 1× protease inhibitor cocktail (P1005, Beyotime). After incubation on ice for 20 minutes, the cells were centrifuged at 14,000 g at 4°C for 30 minutes. The supernatant was carefully collected and analyzed for ERα protein levels by immunoblotting.

[2] = test system: MCF-7 cells; assay: MCF-7 cell proliferation inhibition (CCK-8); settings: Homo sapiens, MCF7, 144 h, 6 days
Experimental: The complete culture medium required for breast cancer MCF-7 cells (source ATCC) is DMEM (gibco, Product number: 11995-065) basal medium containing 10% fetal bovine serum. MCF-7 cells were seeded in 96-well plates at a density of 800 cells/well, and different concentrations of PROTAC compounds 1-55 provided in the embodiments of the present invention and the positive control sample ARV-471 (source: Inokai) were prepared to treat cells. The cells were incubated at 37 °C and 5% CO2 in a cell culture incubator for 6 days. Cell viability was detected using a CCK-8 kit (Beyotime, Product number: C0040) according to the manufacturer's instructions. The IC50 value of each PROTAC compound for 6 days was calculated using GraphPad Prism software based on the inhibition rate. Table 7: IC50 value for the inhibition of MCF-7 cell proliferation by PROTAC compounds of the present disclosure and positive control sample

[3] = target: T1, ERα; assay: ERα degradation in MCF-7 cells (Western blot); settings: 10 nM, 4 hours
Experimental: MCF-7 (ATCC) cells were cultured in DMEM medium (11995-065, Gibco) containing 10% FBS (10099141C, Gibco) at 37°C and 5% CO2 until they entered the logarithmic growth phase. MCF-7 cells were seeded at a density of 3×10^5 cells/well in a 6-well plate and incubated at 37°C, 5% CO2 for 24 hours. After cell attachment, 1 µL of compound in dimethyl sulfoxide solution (final concentration 0.15-1000 nM) was added and the cells were incubated for another 4 hours at 37°C, 5% CO2. After 4 hours, the culture medium was discarded, and each well was washed once with 1 mL of pre-chilled 1× DPBS. […] The supernatant was carefully collected and analyzed for ERα protein levels by immunoblotting.
Western blotting: The total protein concentration in the collected cell lysate supernatant was determined using the BCA protein concentration assay kit (enhanced) (P0009, Beyotime). Based on the total protein concentration determined by BCA, the protein concentration was adjusted to 1 µg/µL using RIPA lysis buffer and 5× SDS-PAGE protein loading buffer (MB01015, GenScript). […] Protein maps were analyzed for grayscale values using Image Studio Lite software. The grayscale correction value for each sample was calculated using the formula: grayscale correction value = grayscale value of the target protein / grayscale value of the corresponding internal reference. […]

[4] = test system: T-47D cells; assay: T-47D cell proliferation inhibition (CCK-8); settings: Homo sapiens, T47D, 144 h, 6 days
Experimental: The complete culture medium required for breast ductal carcinoma T-47D cells is 1640 (ATCC, Product number: A10491-01) basal medium containing 10% fetal bovine serum. T-47D cells were seeded in 96-well plates at a density of 3,000/well, and different concentrations of PROTAC compounds 1-55 provided in the embodiments of the present invention and the positive control sample ARV-471 (source: Inokai) were prepared to treat the cells and incubated at 37°C, 5% CO2 in a cell culture incubator for 6 days. According to the manufacturer's instructions, the CCK-8 kit (Beyotime, Product number: C0040) was used to detect cell viability. The IC50 of each compound for 6 days was calculated using GraphPadPrism software based on the inhibition rate. Table 6: IC50 value for the inhibition of T-47D cell proliferation by PROTAC compounds and positive control sample

With `O=C1CCN(c2ccc3c(c2)CC2(CCN(C[C@H]4CC[C@@H](OC5CCN(c6ccc([C@@H]7c8ccc(O)cc8CC[C@@H]7c7ccccc7)cc6)CC5)CC4)CC2)O3)C(=O)N1` [ER-P-1, 1-(1'-(((1S,4S)-4-((1-(4-((1R,2S)-6-hydroxy-2-phenyl-1,2,3,4-tetrahydro-naphthalen-1-yl)phenyl)piperidin-4-yl)oxy)cyclohexyl)methyl)-3H-spiro [benzofuran-2,4'-piperidine]-5-yl)dihydropyrimidine-2,4(1H,3H)-dione] the “degradation rate of ERα in T-47D cells” value [1] was “greater than or equal to 30%” and the pIC50 [2] was 6.07.
In the case of `O=C1CCN(c2ccc3c(c2)OCC[C@H]2CN(C[C@H]4CC[C@@H](OC5CCN(c6ccc([C@@H]7c8ccc(O)cc8CC[C@@H]7c7ccccc7)cc6)CC5)CC4)CCN32)C(=O)N1` [ER-P-2, 1-((S)-3-(((1S,4R)-4-((1-(4-((1R,2S)-6-hydroxy-2-phenyl-1,2,3,4-tetrahydronaphthalen-1-yl)phenyl)piperidin-4-yl)oxy)cyclohexyl)methyl)-2,3,4,4a,5,6-hexahydro-1H-benzo[b]pyrazino[1,2-d][1,4]oxazepin-9-yl)dihydropyrimidine-2,4(1H,3H)-dione], the “degradation rate of ERα in MCF-7 cells” value [3] was “greater than or equal to 30%” and the pIC50 [4] was 7.66.
